Holding throughout (test): relative viability (nuclei count vs DMSO), 5 days (fraction); higher = more cells survive
Compound in assay [1]: O[C@@H](COc1cccc2ncccc12)CN1CCN([C@@H]2c3ccccc3[C@@H]3[C@H](c4ccccc42)C3(F)F)CC1 [Zosuquidar] + Cc1nc(NC(=O)N2CCC[C@H]2C(N)=O)sc1-c1ccnc(C(C)(C)C(F)(F)F)c1 [Alpelisib] (partner 2 µM)
The gist of the method: (§1)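 Nuclei were stained with Hoechst during a one-step fixation (final 0.05% Triton X-100, 1% formaldehyde, 1 ug/ml Hoechst) carried out 5 days after dosing, then counted on 4× images. The cells, lung cancer lines in 1536-well plates, had been dosed by pin tool the day after seeding with one drug alone or a fixed anchor-drug dose plus five library-drug doses (not always all listed) in √10 steps. Relative viability is the nuclei count in treated wells divided by that in vehicle wells, and each value is the median of duplicate plates.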

Compound in assay [2]: COc1cc2nccc(Oc3ccc(NC(=O)C4(C(=O)Nc5ccc(F)cc5)CC4)cc3)c2cc1OC [Cabozantinib] + Cc1nc(NC(=O)N2CCC[C@H]2C(N)=O)sc1-c1ccnc(C(C)(C)C(F)(F)F)c1 [Alpelisib] (partner 2 µM)
The gist of the method:
as §1

Compound in assay [3]: C1=CC(=CC=C1NC(=S)NNC2=C(C=C(C=C2[N+](=O)[O-])C(F)(F)F)[N+](=O)[O-])F [Kobe2602] + Cc1nc(NC(=O)N2CCC[C@H]2C(N)=O)sc1-c1ccnc(C(C)(C)C(F)(F)F)c1 [Alpelisib] (partner 2 µM)
Put shortly:
as §1

Compound in assay [4]: COc1cc2nccc(Oc3ccc(NC(=O)C4(C(=O)Nc5ccc(F)cc5)CC4)cc3)c2cc1OC [Cabozantinib] + C[C@@H](Oc1cc(-c2cnn(C3CCNCC3)c2)cnc1N)c1c(Cl)ccc(F)c1Cl [Crizotinib] (partner 1 µM)
Put shortly:
as §1

With RERF-LC-KJ, the relative viability amounted to 0.809 in assay [1] (first compound 0.01 µM); 0.913 in assay [1] (first compound 0.03162 µM); 0.745 in assay [1] (first compound 0.1 µM); 0.887 in assay [1] (first compound 0.3162 µM); 0.874 in assay [1] (first compound 1 µM); 0.864 in assay [2] (first compound 0.02 µM). Besides, the relative viability is 0.877 in assay [2] (first compound 0.06325 µM); 0.733 in assay [2] (first compound 0.2 µM); 0.847 in assay [2] (first compound 0.6325 µM); 0.675 in assay [2] (first compound 2 µM); 0.829 in assay [3] (first compound 0.2 µM); 0.792 in assay [3] (first compound 0.6325 µM). The relative viability in assay [3] (first compound 2 µM) worked out at 0.742; in assay [3] (first compound 6.325 µM) it was 0.865; in assay [3] (first compound 20 µM) it was 0.779; in assay [4] (first compound 0.02 µM), 0.868; in assay [4] (first compound 0.06325 µM), 0.895; in assay [4] (first compound 0.2 µM) it was 0.917. Further, the figures for the relative viability in assay [4] (first compound 0.6325 µM) and in assay [4] (first compound 2 µM) were 0.802 and 0.855, respectively.

With SK-LU-1, the relative viability in assay [1] (first compound 0.01 µM) worked out at 0.954; in assay [1] (first compound 0.03162 µM) it was 1.04; in assay [1] (first compound 0.1 µM) it was 1.17; in assay [1] (first compound 0.3162 µM), 1.26; in assay [1] (first compound 1 µM), 0.895; in assay [2] (first compound 0.06325 µM) it was 1.29. Also, the relative viability in assay [2] (first compound 0.2 µM) was determined as 0.983; in assay [2] (first compound 0.6325 µM), 0.718; in assay [2] (first compound 2 µM), 0.705; in assay [3] (first compound 0.2 µM), 1.03; in assay [3] (first compound 0.6325 µM), 1.37; in assay [3] (first compound 2 µM), 0.968. Besides, the relative viability is 0.948 in assay [3] (first compound 6.325 µM); 0.977 in assay [3] (first compound 20 µM); 0.941 in assay [4] (first compound 0.06325 µM); 0.772 in assay [4] (first compound 0.2 µM); 0.872 in assay [4] (first compound 0.6325 µM); 0.857 in assay [4] (first compound 2 µM).

Consider SK-MES-1, for which the relative viability in assay [1] (first compound 0.01 µM) was found to be 0.876; in assay [1] (first compound 0.03162 µM), 0.95; in assay [1] (first compound 0.1 µM), 0.692; in assay [1] (first compound 0.3162 µM) it was 1.07; in assay [1] (first compound 1 µM), 0.987; in assay [2] (first compound 0.02 µM) it was 1.08. Besides, the relative viability in assay [2] (first compound 0.06325 µM) is 0.993; in assay [2] (first compound 0.2 µM), 0.846; in assay [2] (first compound 0.6325 µM) it was 0.826; in assay [2] (first compound 2 µM) it was 0.816; in assay [3] (first compound 0.2 µM), 0.817; in assay [3] (first compound 0.6325 µM) it was 0.955. Further, the relative viability came out at 0.844 in assay [3] (first compound 2 µM); 0.79 in assay [3] (first compound 6.325 µM); 0.877 in assay [3] (first compound 20 µM); 1.13 in assay [4] (first compound 0.02 µM); 1.14 in assay [4] (first compound 0.06325 µM); 1.02 in assay [4] (first compound 0.2 µM). For the same cell line, the values for the relative viability in assay [4] (first compound 0.6325 µM) and in assay [4] (first compound 2 µM) were 1.03 and 0.825, respectively.

As to SW 1573, the relative viability is 0.721 in assay [1] (first compound 0.01 µM); 0.739 in assay [1] (first compound 0.03162 µM); 0.651 in assay [1] (first compound 0.1 µM); 0.89 in assay [1] (first compound 0.3162 µM); 0.8 in assay [1] (first compound 1 µM); 1.02 in assay [2] (first compound 0.02 µM). Moreover, the relative viability in assay [2] (first compound 0.06325 µM) worked out at 0.719; in assay [2] (first compound 0.2 µM) it was 0.77; in assay [2] (first compound 0.6325 µM), 0.792; in assay [2] (first compound 2 µM), 0.651; in assay [3] (first compound 0.2 µM) it was 0.759; in assay [3] (first compound 0.6325 µM), 0.792. In addition, the relative viability was found to be 0.677 in assay [3] (first compound 2 µM); 0.622 in assay [3] (first compound 6.325 µM); 0.736 in assay [3] (first compound 20 µM); 0.927 in assay [4] (first compound 0.02 µM); 0.873 in assay [4] (first compound 0.06325 µM); 0.948 in assay [4] (first compound 0.2 µM). In addition, the results for the relative viability in assay [4] (first compound 0.6325 µM) and in assay [4] (first compound 2 µM) were 0.822 and 0.671, respectively.

The record behind these values is the supplement of paper PMC10307832.
